In ChEMBL document CHEMBL3885861, “Open TG-GATES”:

Species: Rattus norvegicus
Assay: Open TG-GATES - Regimen: Daily Repeat
Format: toxicity, organism-based, Sprague-Dawley
Parameters: regimen Daily Repeat, gender Male, age 6 weeks
Details: in vivo, po, 20 mg/kg, route gavage, dose level Middle; for APTT / Bas / Eos / Fbg / Hb / Ht / Lym / MCH / MCHC / MCV / Mono / Neu / PT / Plat / RBC / Ret / WBC: tissue Blood; for KIDNEY_L / KIDNEY_R / KIDNEY_TOTAL: tissue Kidney; for LIVER: tissue Liver; for A/G / ALP / ALT / AST / BUN / CRE / Ca / Cl / DBIL / GLC / IP / K / LDH / Na / PL / RALB / TBIL / TC / TG / TP / gamma-GTP: tissue Plasma

SMILES: CC(C)NNC(=O)c1ccncc1 [IPRONIAZID]
- TERMINAL_BW (72 h, time 3 day): 194.3 g
- APTT (72 h, time 3 day): 22.2 s
- Bas (72 h, time 3 day): 0%
- Eos (72 h, time 3 day): 1%
- Fbg (72 h, time 3 day): 299.2 mg/dL
- Hb (72 h, time 3 day): 14.1 g/dL
- Ht (72 h, time 3 day): 40.8%
- Lym (72 h, time 3 day): 78.8%
- MCH (72 h, time 3 day): 20.7 pg
- MCHC (72 h, time 3 day): 34.6%
- MCV (72 h, time 3 day): 59.9 fL
- Mono (72 h, time 3 day): 2.4%
- Neu (72 h, time 3 day): 17.6%
- PT (72 h, time 3 day): 16.5 s
- Plat (72 h, time 3 day): 134 x10_4/uL
- RBC (72 h, time 3 day): 682.6 x10_4/ul
- Ret (72 h, time 3 day): 5.9%
- WBC (72 h, time 3 day): 72.4 x10_2/uL
- KIDNEY_L (72 h, time 3 day): 0.8 g
- KIDNEY_R (72 h, time 3 day): 0.9 g
- KIDNEY_TOTAL (72 h, time 3 day): 1.7 g
- LIVER (72 h, time 3 day): 8.7 g
- A/G (72 h, time 3 day): 1.2
- ALP (72 h, time 3 day): 1696.2 IU/L
- ALT (72 h, time 3 day): 42 IU/L
- AST (72 h, time 3 day): 74 IU/L
- BUN (72 h, time 3 day): 19.2 mg/dL
- CRE (72 h, time 3 day): 0.2 mg/dL
- Ca (72 h, time 3 day): 10.5 mg/dL
- Cl (72 h, time 3 day): 108.2 meq/L
- DBIL (72 h, time 3 day): 0.002 mg/dL
- GLC (72 h, time 3 day): 175 mg/dL
- IP (72 h, time 3 day): 7.1 mg/dL
- K (72 h, time 3 day): 4.4 meq/L
- LDH (72 h, time 3 day): 262 IU/L
- Na (72 h, time 3 day): 143.2 meq/L
- PL (72 h, time 3 day): 150.8 mg/dL
- RALB (72 h, time 3 day): 3.3 g/dL
- TBIL (72 h, time 3 day): 0.01 mg/dL
- TC (72 h, time 3 day): 80.6 mg/dL
- TG (72 h, time 3 day): 105.2 mg/dL
- TP (72 h, time 3 day): 5.9 g/dL
- gamma-GTP (72 h, time 3 day): 1 IU/L
- TERMINAL_BW ([…], time 7 day): 222.7 g
- TERMINAL_BW ([…], time 14 day): 259.4 g
- TERMINAL_BW ([…], time 28 day): 331.2 g
- APTT ([…], time 7 day): 22.7 s
- Bas ([…], time 7 day): 0%
- Eos ([…], time 7 day): 1%
- Fbg ([…], time 7 day): 311.4 mg/dL
- Hb ([…], time 7 day): 13.3 g/dL
- Ht ([…], time 7 day): 37.6%
- Lym ([…], time 7 day): 82.2%
- MCH ([…], time 7 day): 20.5 pg
- MCHC ([…], time 7 day): 35.4%
- MCV ([…], time 7 day): 57.8 fL
- Mono ([…], time 7 day): 1.8%
- Neu ([…], time 7 day): 13.8%
- PT ([…], time 7 day): 15.4 s
- Plat ([…], time 7 day): 122.6 x10_4/uL
- RBC ([…], time 7 day): 651.6 x10_4/ul
- Ret ([…], time 7 day): 4.2%
- WBC ([…], time 7 day): 73.7 x10_2/uL
- APTT ([…], time 14 day): 20.5 s
- Bas ([…], time 14 day): 0%
- Eos ([…], time 14 day): 0.6%
- Fbg ([…], time 14 day): 320.6 mg/dL
- Hb ([…], time 14 day): 12.5 g/dL
- Ht ([…], time 14 day): 36.8%
- Lym ([…], time 14 day): 76%
- MCH ([…], time 14 day): 19.9 pg
- MCHC ([…], time 14 day): 34%
- MCV ([…], time 14 day): 58.7 fL
- Mono ([…], time 14 day): 2.2%
- Neu ([…], time 14 day): 20.4%
- PT ([…], time 14 day): 16.1 s
- Plat ([…], time 14 day): 122.7 x10_4/uL
- RBC ([…], time 14 day): 628 x10_4/ul
- Ret ([…], time 14 day): 8.9%
- WBC ([…], time 14 day): 105.3 x10_2/uL
- APTT ([…], time 28 day): 24 s
- Bas ([…], time 28 day): 0%
- Eos ([…], time 28 day): 1%
- Fbg ([…], time 28 day): 313.2 mg/dL
- Hb ([…], time 28 day): 13.5 g/dL
- Ht ([…], time 28 day): 39%
- Lym ([…], time 28 day): 80.8%
- MCH ([…], time 28 day): 20.6 pg
- MCHC ([…], time 28 day): 34.5%
- MCV ([…], time 28 day): 59.6 fL
- Mono ([…], time 28 day): 1.2%
- Neu ([…], time 28 day): 16.6%
- PT ([…], time 28 day): 16.3 s
- Plat ([…], time 28 day): 108.1 x10_4/uL
- RBC ([…], time 28 day): 654.8 x10_4/ul
- Ret ([…], time 28 day): 6.7%
- WBC ([…], time 28 day): 133.5 x10_2/uL
- KIDNEY_L ([…], time 7 day): 0.9 g
- KIDNEY_R ([…], time 7 day): 0.9 g
- KIDNEY_TOTAL ([…], time 7 day): 1.8 g
- KIDNEY_L ([…], time 14 day): 1 g
- KIDNEY_R ([…], time 14 day): 1 g
- KIDNEY_TOTAL ([…], time 14 day): 2.1 g
- KIDNEY_L ([…], time 28 day): 1.2 g
- KIDNEY_R ([…], time 28 day): 1.2 g
- KIDNEY_TOTAL ([…], time 28 day): 2.4 g
- LIVER ([…], time 7 day): 9.4 g
- LIVER ([…], time 14 day): 10.8 g
- LIVER ([…], time 28 day): 12.6 g
- A/G ([…], time 7 day): 1.2
- ALP ([…], time 7 day): 1298.6 IU/L
- ALT ([…], time 7 day): 36.2 IU/L
- AST ([…], time 7 day): 75 IU/L
- BUN ([…], time 7 day): 18.6 mg/dL
- CRE ([…], time 7 day): 0.2 mg/dL
- Ca ([…], time 7 day): 10.4 mg/dL
- Cl ([…], time 7 day): 107.6 meq/L
- DBIL ([…], time 7 day): 0.004 mg/dL
- GLC ([…], time 7 day): 179.4 mg/dL
- IP ([…], time 7 day): 6.6 mg/dL
- K ([…], time 7 day): 4.2 meq/L
- LDH ([…], time 7 day): 206.4 IU/L
- Na ([…], time 7 day): 142.2 meq/L
- PL ([…], time 7 day): 154.8 mg/dL
- RALB ([…], time 7 day): 3.1 g/dL
- TBIL ([…], time 7 day): 0.006 mg/dL
- TC ([…], time 7 day): 88.6 mg/dL
- TG ([…], time 7 day): 89 mg/dL
- TP ([…], time 7 day): 5.7 g/dL
- gamma-GTP ([…], time 7 day): 1.4 IU/L
- A/G ([…], time 14 day): 1.1
- ALP ([…], time 14 day): 1067 IU/L
- ALT ([…], time 14 day): 40.2 IU/L
- AST ([…], time 14 day): 70.8 IU/L
- BUN ([…], time 14 day): 18.2 mg/dL
- CRE ([…], time 14 day): 0.2 mg/dL
- Ca ([…], time 14 day): 10.4 mg/dL
- Cl ([…], time 14 day): 106.6 meq/L
- DBIL ([…], time 14 day): 0.004 mg/dL
- GLC ([…], time 14 day): 182.6 mg/dL
- IP ([…], time 14 day): 6.7 mg/dL
- K ([…], time 14 day): 4.3 meq/L
- LDH ([…], time 14 day): 154.6 IU/L
- Na ([…], time 14 day): 142.2 meq/L
- PL ([…], time 14 day): 153.8 mg/dL
- RALB ([…], time 14 day): 3 g/dL
- TBIL ([…], time 14 day): 0.026 mg/dL
- TC ([…], time 14 day): 85 mg/dL
- TG ([…], time 14 day): 118.6 mg/dL
- TP ([…], time 14 day): 5.7 g/dL
- gamma-GTP ([…], time 14 day): 1.8 IU/L
- A/G ([…], time 28 day): 1.1
- ALP ([…], time 28 day): 1143.8 IU/L
- ALT ([…], time 28 day): 37.2 IU/L
- AST ([…], time 28 day): 68 IU/L
- BUN ([…], time 28 day): 17.4 mg/dL
- CRE ([…], time 28 day): 0.2 mg/dL
- Ca ([…], time 28 day): 10.4 mg/dL
- Cl ([…], time 28 day): 106.2 meq/L
- DBIL ([…], time 28 day): 0 mg/dL
- GLC ([…], time 28 day): 184.2 mg/dL
- IP ([…], time 28 day): 6.9 mg/dL
- K ([…], time 28 day): 4.2 meq/L
- LDH ([…], time 28 day): 157.6 IU/L
- Na ([…], time 28 day): 141.8 meq/L
- PL ([…], time 28 day): 138.4 mg/dL
- RALB ([…], time 28 day): 3.1 g/dL
- TBIL ([…], time 28 day): 0.038 mg/dL
- TC ([…], time 28 day): 68.4 mg/dL
- TG ([…], time 28 day): 122.6 mg/dL
- TP ([…], time 28 day): 5.9 g/dL
- gamma-GTP ([…], time 28 day): 2.2 IU/L
